# Laboratory results published in patent US20230014445A1, “ALLOSTERIC CHROMENONE INHIBITORS OF PHOSPHOINOSITIDE 3-KINASE (PI3K) FOR THE TREATMENT OF DISEASE” (Petra Pharma Corporation, priority 2021, published 2023).
# Assays:
# [1] = molecular target: T1, human full length PIK3KA H1047R mutant (p110α/p85α complex) (Homo sapiens, UniProt P42336, H1047R); assay: PI3K-Alpha Kinase (PIK3CA) biochemical activity, H1047R mutant (ADP-Glo); details: 20 uM ATP
# T1 construct: Recombinant, catalytically active human full length PIK3KA Wild-type and H1047R mutant were purchased; 6xHis (N); purchased EMD Millipore Sigma 14-792M
# T1 sequence (P42336 whole entry H1047R): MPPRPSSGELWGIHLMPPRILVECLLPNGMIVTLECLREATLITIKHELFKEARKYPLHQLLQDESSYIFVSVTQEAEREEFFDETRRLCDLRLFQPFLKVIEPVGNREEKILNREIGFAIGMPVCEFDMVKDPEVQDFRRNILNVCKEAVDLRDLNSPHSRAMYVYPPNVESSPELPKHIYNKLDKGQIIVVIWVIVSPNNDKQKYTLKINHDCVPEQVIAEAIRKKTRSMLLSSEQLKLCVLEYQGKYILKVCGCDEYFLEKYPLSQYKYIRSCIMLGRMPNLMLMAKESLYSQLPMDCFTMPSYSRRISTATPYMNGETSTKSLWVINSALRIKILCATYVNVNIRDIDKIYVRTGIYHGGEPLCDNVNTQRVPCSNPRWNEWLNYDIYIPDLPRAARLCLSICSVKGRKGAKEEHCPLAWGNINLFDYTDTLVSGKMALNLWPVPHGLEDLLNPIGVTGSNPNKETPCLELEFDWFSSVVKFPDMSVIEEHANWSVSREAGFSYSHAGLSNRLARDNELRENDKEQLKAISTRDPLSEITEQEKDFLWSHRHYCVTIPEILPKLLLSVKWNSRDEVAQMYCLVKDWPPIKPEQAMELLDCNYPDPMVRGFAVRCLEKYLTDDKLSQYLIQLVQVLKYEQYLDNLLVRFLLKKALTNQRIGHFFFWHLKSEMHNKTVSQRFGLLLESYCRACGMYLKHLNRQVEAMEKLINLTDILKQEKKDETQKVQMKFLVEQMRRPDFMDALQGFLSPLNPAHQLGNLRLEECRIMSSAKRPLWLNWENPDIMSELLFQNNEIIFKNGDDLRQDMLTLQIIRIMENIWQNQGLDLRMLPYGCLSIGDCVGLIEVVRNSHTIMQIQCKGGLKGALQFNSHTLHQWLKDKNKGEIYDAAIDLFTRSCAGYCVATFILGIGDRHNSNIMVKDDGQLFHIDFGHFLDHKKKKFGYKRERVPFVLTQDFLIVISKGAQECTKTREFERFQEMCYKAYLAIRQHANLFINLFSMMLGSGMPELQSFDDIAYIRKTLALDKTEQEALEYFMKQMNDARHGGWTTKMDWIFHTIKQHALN
# T1 sequence (P27986 whole entry partner): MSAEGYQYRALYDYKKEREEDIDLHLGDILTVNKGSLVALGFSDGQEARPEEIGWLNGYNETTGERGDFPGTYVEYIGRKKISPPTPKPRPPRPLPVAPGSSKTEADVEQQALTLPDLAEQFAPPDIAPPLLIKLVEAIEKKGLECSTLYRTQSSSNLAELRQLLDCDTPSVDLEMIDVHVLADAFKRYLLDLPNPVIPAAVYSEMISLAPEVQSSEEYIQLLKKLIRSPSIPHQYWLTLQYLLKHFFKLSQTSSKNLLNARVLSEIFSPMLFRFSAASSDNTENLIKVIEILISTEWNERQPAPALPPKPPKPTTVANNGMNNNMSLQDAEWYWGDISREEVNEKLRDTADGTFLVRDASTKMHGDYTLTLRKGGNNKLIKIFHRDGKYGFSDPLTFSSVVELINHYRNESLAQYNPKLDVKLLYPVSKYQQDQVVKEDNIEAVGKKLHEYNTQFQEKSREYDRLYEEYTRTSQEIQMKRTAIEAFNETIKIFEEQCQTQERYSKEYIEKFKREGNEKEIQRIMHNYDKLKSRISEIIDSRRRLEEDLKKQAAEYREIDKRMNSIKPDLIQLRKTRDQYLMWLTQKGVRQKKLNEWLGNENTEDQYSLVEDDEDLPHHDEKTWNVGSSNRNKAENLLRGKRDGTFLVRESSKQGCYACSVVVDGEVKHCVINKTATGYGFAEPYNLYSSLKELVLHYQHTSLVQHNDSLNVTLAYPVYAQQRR
# Excerpt: (§1) PI3K-Alpha Kinase (PIK3CA) Activity, Wild-Type and H1047R Mutant and Determining IC50 Values for Inhibitors
# (§2) Recombinant, catalytically active human full length PIK3KA Wild-type and H1047R mutant were purchased as 1:1 complex of N-terminal 6×his tagged p110α (catalytic) and untagged p85α, (regulatory subunit) from EMD Millipore Sigma (cat. no. 14-602M and 14-792M, respectively). PIP2diC8 (Avanti Polar Lipids Inc., cat. no. 850185) or Soy PI (Avanti Polar Lipids Inc., cat. No. 840044P) was used as lipid substrate. PIP2diC8 or PI lyophilized powder was dissolved in milliQ water to a concentration of 1 mM just before use. 10 mM stock compounds in DMSO were serially diluted 1:3 to generate a 10-point curve and plated using an acoustic liquid handler system (Echo 550 series instrument, Labcyte). A 10× intermediate compound plate (200 uM starting compound concentration and 10% DMSO) was prepared before starting the reaction. A typical reaction mixture (50 uL) comprised 40 mM HEPES buffer, pH 7.4, 25 mM MgCl2, 0.01% v/v triton-X-100, 1% v/v DMSO, 20 mM NaCl, 1-5 nM WT or H1047R PI3K protein, 20 uM ATP, and 50 uM PIP2diC8 or Soy PI. 1% DMSO buffer alone without test compound was employed as MAX control (full activity in the absence of any inhibitor), and no enzyme control was used to determine the level of background Adenosine 5′-diphosphate (ADP) (MIN control). First, Wild-type (WT) and H1047R mutant protein in kinase buffer with all components except ATP were incubated with or without compound at 27° C. for 1 h. After the pre-incubation, the reaction was initiated by the addition of […] (20 uM final concentration). The reaction was allowed to proceed until about 10% conversion of ATP (2 uM ADP) at 27° C. After that time, 5 uL of reaction was mixed with 5 uL of ADP-Kinase Glo Reagent (ADP-Glo Kinase assay kit, Promega cat. no. V9102) supplemented with MgCl2 10 mM to stop the reaction and deplete the remaining ATP for 40 min at room temperature. Then, 10 uL of Kinase Detection Reagent (ADP-Glo Kinase assay kit, Promega cat. no. V9102) was added to simultaneously convert ADP to ATP and allow the newly synthesized ATP to be measured using a luciferase/luciferin reaction. After 30 min at room temperature the light generated was measured using a luminometer (EnVision plate reader, Perkin Elmer). Process data through Genedata-Screener tool. Relative IC50 values are determined using luminescence units by calculating percent inhibition with respect to on-plate “MIN” and “MAX” controls. Data was analyzed using a 4-parameter nonlinear logistic equation (four-parameter logistic concentration-response curve):
# (§3) Y=bot+[(top−bot)/1+(x/IC50)slope]
# (§4) where Y=% inhibition, X=concentration yielding y % inhibition, Bottom=minimum value of y attained by curve, Top=maximum value of y attained by curve and Slope=steepness of curve at IC50.
# (§5) % Inh=[(median Max−x/median Max−median Min)]·100
# (§6) IC50: concentration of compound that reduces a given response (ligand binding, enzyme response) by 50%. IC50 relative: concentration giving half the compound's maximum response.
# (§7) For IC50 values shown in Table A, “A” means IC50<0.5 μM; “B” means IC50 ranging between 0.5 μM and 1.0 μM; “C” means IC50 ranging between 1 μM and 5 μM; “D” means IC50 ranging between 5 μM and 10 μM; “E” means IC50>10 μM.
# [2] = molecular target: T2, human full length PIK3KA Wild-type (p110α/p85α complex) (Homo sapiens, UniProt P42336); assay: PI3K-Alpha Kinase (PIK3CA) biochemical activity, wild-type (ADP-Glo); details: 20 uM ATP
# T2 construct: Recombinant, catalytically active human full length PIK3KA Wild-type and H1047R mutant were purchased; 6xHis (N); purchased EMD Millipore Sigma 14-602M
# Excerpt: as §1, §2, §3, §4, §5, §6, §7
Structure (SMILES),IC50 ([1]; Soy PI lipid substrate),IC50 ([2]; Soy PI lipid substrate),IC50 ([1]; PIP2diC8 lipid substrate),IC50 ([2]; PIP2diC8 lipid substrate)
"Cc1cc(C(C)Nc2ccc(Cl)c(F)c2C(=O)O)c2oc(-c3ccccn3)cc(=O)c2c1 (single isomer, unassigned; isomer 1) [Example 78, 3-Chloro-2-fluoro-6-[1-[6-methyl-4-oxo-2-(2-pyridyl)chromen-8-yl]ethylamino]benzoic acid, Isomer 1]",< 500 nM,5000 to 10000 nM,–,–
"CC(Nc1ccc(Cl)nc1C(=O)O)c1cc(C(F)(F)F)cc2c(=O)cc(-c3cnn(-c4ccc(C#N)cc4)c3)oc12 (single isomer, unassigned; isomer 1) [Example 96, 6-Chloro-3-[1-[2-[1-(4-cyanophenyl)pyrazol-4-yl]-4-oxo-6-(trifluoromethyl)chromen-8-yl]ethylamino]pyridine-2-carboxylic acid, Isomer 1]",< 500 nM,1000 to 5000 nM,–,–
"CC(Nc1ccccc1C(=O)O)c1cc(C(F)(F)F)cc2c(=O)cc(-c3cnn(-c4ccc(C#N)cc4)c3)oc12 (single isomer, unassigned; isomer 1) [Example 99, 2-[1-2-[1-(4-Cyanophenyl)pyrazol-4-yl]-4-oxo-6-(trifluoromethyl)chromen-8-yl]ethylamino]benzoic acid, Isomer 1]",500 to 1000 nM,1000 to 5000 nM,–,–
"Cc1cc(C(C)Nc2ccccc2C(=O)O)c2oc(-c3ncccn3)cc(=O)c2c1 (single isomer, unassigned; isomer 2) [Example 3, 2-[1-(6-Methyl-4-oxo-2-pyrimidin-2-yl-chromen-8-yl)ethylamino]benzoic acid, Isomer 2]",< 500 nM,> 10000 nM,–,–
"Cc1cc(C(C)Nc2ccccc2C(=O)O)c2oc(-c3cccnc3)cc(=O)c2c1 (single isomer, unassigned; isomer 2) [Example 14, 2-[1-[6-Methyl-4-oxo-2-(3-pyridyl)chromen-8-yl]ethylamino]benzoic acid, Isomer 2]",< 500 nM,1000 to 5000 nM,–,–
"Cc1cc(C(C)Nc2ccccc2C(=O)O)c2oc(-c3cnccn3)cc(=O)c2c1 (single isomer, unassigned; isomer 2) [Example 16, 2-[1-(6-Methyl-4-oxo-2-pyrazin-2-yl-chromen-8-yl)ethylamino]benzoic acid, Isomer 2]",–,–,> 10000 nM,> 10000 nM
"Cc1cc(C(C)Nc2ccccc2C(=O)O)c2oc(-c3ccccn3)cc(=O)c2c1 (single isomer, unassigned; isomer 2) [Example 18, 2-[1-[6-Methyl-4-oxo-2-(2-pyridyl)chromen-8-yl]ethylamino]benzoic acid, Isomer 2]",–,–,> 10000 nM,> 10000 nM
"COc1ccc(-c2cc(=O)c3cc(C)cc(C(C)Nc4ccccc4C(=O)O)c3o2)cn1 (single isomer, unassigned; isomer 2) [Example 20, 2-[1-[2-(6-Methoxy-3-pyridyl)-6-methyl-4-oxo-chromen-8-yl]ethylamino]benzoic acid, Isomer 2]",< 500 nM,1000 to 5000 nM,–,–
"Cc1cc(C(C)Nc2ccccc2C(=O)O)c2oc(-c3cnc(C4CC4)nc3)cc(=O)c2c1 (single isomer, unassigned; isomer 2) [Example 26, 2-[1-[2-(2-Cyclopropylpyrimidin-5-yl)-6-methyl-4-oxo-chromen-8-yl]ethylamino]benzoic acid, Isomer 2]",< 500 nM,5000 to 10000 nM,–,–
"Cc1cc(C(C)Nc2ccccc2C(=O)O)c2oc(-c3ccc(OC(C)C)nc3)cc(=O)c2c1 (single isomer, unassigned; isomer 2) [Example 31, 2-[1-[2-(6-Isopropoxy-3-pyridyl)-6-methyl-4-oxo-chromen-8-yl]ethylamino]benzoic acid, Isomer 2]",–,–,< 500 nM,1000 to 5000 nM
"Cc1cc(C(C)Nc2ccccc2C(=O)O)c2oc(-c3ccc(C(F)(F)F)nc3)cc(=O)c2c1 (single isomer, unassigned; isomer 2) [Example 38, 2-[1-[6-Methyl-4-oxo-2-[6-(trifluoromethyl)-3-pyridyl]chromen-8-yl]ethylamino]benzoic acid, Isomer 2]",< 500 nM,> 10000 nM,–,–
"Cc1cc(C(C)Nc2ccccc2C(=O)O)c2oc(-c3ccc(S(C)(=O)=O)nc3)cc(=O)c2c1 (single isomer, unassigned; isomer 2) [Example 40, 2-[1-[6-Methyl-2-(6-methylsulfonyl-3-pyridyl)-4-oxo-chromen-8-yl]ethylamino]benzoic acid, Isomer 2]",< 500 nM,> 10000 nM,–,–
"Cc1cc(C(C)Nc2ccccc2C(=O)O)c2oc(-c3cnn(-c4cccnc4)c3)cc(=O)c2c1 (single isomer, unassigned; isomer 2) [Example 50, 2-[1-[6-Methyl-4-oxo-2-[1-(3-pyridyl)pyrazol-4-yl]chromen-8-yl]ethylamino]benzoic acid, Isomer 2]",< 500 nM,1000 to 5000 nM,–,–
"COC(=O)c1ccccc1NC(C)c1cc(C)cc2c(=O)cc(-c3c[nH]c(=O)cn3)oc12 (single isomer, unassigned; isomer 2) [Example 56, Methyl 2-[1-[6-methyl-4-oxo-2-(6-oxo-1H-pyrazin-3-yl)chromen-8-yl]ethylamino]benzoate, Isomer 2]",1000 to 5000 nM,> 10000 nM,–,–
"Cc1cc(C(C)Nc2ccccc2C(=O)O)c2oc(-c3cccc(C(F)F)n3)cc(=O)c2c1 (single isomer, unassigned; isomer 2) [Example 71, 2-[1-[2-[6-(Difluoromethyl)-2-pyridyl]-6-methyl-4-oxo-chromen-8-yl]ethylamino]benzoic acid, Isomer 2]",< 500 nM,5000 to 10000 nM,–,–
"Cc1cc(C(C)Nc2ccccc2C(=O)O)c2oc(-c3nnc(-c4ccc(C#N)cc4)o3)cc(=O)c2c1 (single isomer, unassigned; isomer 2) [Example 90, 2-[1-[2-[5-(4-Cyanophenyl)-1,3,4-oxadiazol-2-yl]-6-methyl-4-oxo-chromen-8-yl]ethylamino]benzoic acid, Isomer 2]",< 500 nM,> 10000 nM,–,–
"COc1cccc(-n2cc(-c3cc(=O)c4cc(C)cc(C(C)Nc5ccccc5C(=O)O)c4o3)nn2)c1 (single isomer, unassigned; isomer 2) [Example 98, 2-[1-2-[1-(3-Methoxyphenyl)triazol-4-yl]-6-methyl-4-oxo-chromen-8-yl]ethylamino]benzoic acid, Isomer 2]",< 500 nM,1000 to 5000 nM,–,–
"Cc1cc(C(C)Nc2ccccc2C(=O)O)c2oc(-c3ccc(OC(C)C)nc3)cc(=O)c2c1 (stereo not shown) [Example 1, 2-[1-[2-(6-Isopropoxy-3-pyridyl)-6-methyl-4-oxo-chromen-8-yl]ethylamino]benzoic acid 2,2,2-trifluoroacetic acid]",500 to 1000 nM,> 10000 nM,–,–
"COc1ncc(-c2cc(=O)c3cc(C)cc(C(C)Nc4ccccc4C(=O)O)c3o2)cn1 (stereo not shown) [Example 2, 2-[1-[2-(2-Methoxypyrimidin-5-yl)-6-methyl-4-oxo-chromen-8-yl]ethylamino]benzoic acid 2,2,2-trifluoroacetic acid]",< 500 nM,5000 to 10000 nM,–,–
"Cc1cc(C(C)Nc2ccccc2C(=O)O)c2oc(-c3cnc(OC(C)C)nc3)cc(=O)c2c1 (stereo not shown) [Example 6, 2-[1-[2-(2-Isopropoxypyrimidin-5-yl)-6-methyl-4-oxo-chromen-8-yl]ethylamino]benzoic acid 2,2,2-trifluoroacetic acid]",< 500 nM,> 10000 nM,–,–
